Laboratory results taken from US9394338B2, “Glutathione analogs and uses thereof” (REGENTS OF THE UNIVERSITY OF MINNESOTA, priority 2011, dated 2016).

How the values were obtained:
SH-SY-5Y cells = test: cells; assay type: cell-based; details: for % Inhibition of Cell Growth with Aβ1-42 / % Inhibition of Cell Growth without Aβ1-42: compound 1 mM 24 h; for % Inhibition of Cell Growth with Aβ1-42: then 20 μM Aβ1-42 24 h
Protocol: (§1) Cytotoxicity Studies: Protection against β-amyloid 1-42 cytotoxicity in SH-SY-5Y cells was measured by standard MTT assays. SH-SY-5Y cells were seeded in 96-well plates at the density of 30,000 cells/well. After overnight incubation, the cells were exposed to GSH or Ψ-GSH at a concentration of 1 mM for 24 h at 37° C. After 24 h of incubation, the drug-containing medium was replaced with media containing 20 μM β-amyloid 1-42 peptide and the incubation was allowed to continue for additional 24 hours after the addition of the drugs. At the end of the incubation, 20 μL of MTT stock solution (5 mg/mL) was added to each well and incubated for 3 h at 37° C. The MTT reaction medium was discarded and the purple-blue MTT formazan crystals were dissolved by the addition of 100 μL of 0.1 N HCl in isopropanol. The optical density (OD), a reflection mitochondrial function of the viable cells, was read directly with a microplate reader (BioTek SynergyHT, VT, USA) at 580 nm and a reference wavelength of 680 nm. Concentration response graphs were generated for each drug using GraphPad Prism software (GraphPad Software, Inc., San Diego, Calif., USA). Results are expressed as mean percent inhibition of β-amyloid toxicity with the standard error of the mean. In another set of experiments, cells were preincubated with a glyoxalase I inhibitor, S-(p-bromobenzylglutathione) (1 mM) for 24 hours before addition of βamyloid1-42 peptide (20 μM).
as §1, with “Protection” for “Cytotoxicity Studies: Protection”, “against β-amyloid^1-42” for “against β-amyloid 1-42”, “cells/well. […]” for “cells/well. After overnight incubation, the cells were exposed to GSH or Ψ-GSH at a concentration of 1 mM for 24 h at 37° C.”, “μM β-amyloid^1-42” for “μM β-amyloid 1-42”, “20 μl,” for “20 μL”, “mean.” for “mean. In another set of experiments, cells were preincubated with a glyoxalase I inhibitor, S-(p-bromobenzylglutathione) (1 mM) for 24 hours before addition of βamyloid1-42 peptide (20 μM).”

yeast glyoxalase I = target: T1, yeast glyoxalase I (Saccharomyces cerevisiae, UniProt P50107); test: Glyoxalase I enzyme kinetics assay; assay type: biochemical; details: yeast Glx-I, MG, 30° C., phosphate buffer pH 6.6
T1 construct: purchased Sigma
T1 sequence (P50107 1-326): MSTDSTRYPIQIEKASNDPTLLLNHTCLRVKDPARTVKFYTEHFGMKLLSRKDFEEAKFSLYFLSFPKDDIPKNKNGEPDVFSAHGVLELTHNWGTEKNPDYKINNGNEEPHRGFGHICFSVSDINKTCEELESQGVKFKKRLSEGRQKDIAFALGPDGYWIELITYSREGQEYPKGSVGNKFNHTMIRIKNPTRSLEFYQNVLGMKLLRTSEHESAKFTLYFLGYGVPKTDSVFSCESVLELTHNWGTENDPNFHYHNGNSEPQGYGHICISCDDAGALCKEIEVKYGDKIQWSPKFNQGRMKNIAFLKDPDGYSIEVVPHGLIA
Protocol: Glyoxalase I Enzyme Kinetics Assay. The glutathione analog, Ψ-GSH and asparthione were examined for their ability to act as substrates for the yeast glyoxalase I mediated […] of MG. The commercial 40% methylglyoxal solution was distilled to remove polymerization products. Enzyme assays were performed (30° C., 0.05 M phosphate buffer (pH 6.6)) using a thermostated Beckman DU® 7400 spectrophotometer. Fresh solutions of GSH, Ψ-GSH and asparthione were prepared on the day of the assays with distilled, deionized water. In each assay, the cell contained a total volume of 3.0 mL which was no more than 6.0 mM with respect to methylglyoxal and 1.3 mM with respect to GSH or its analogs. […] Data were analyzed utilizing an Enzyme kinetics module of Sigmaplot 9.0 from Systat Software Inc.

Swiss Webster Mice = test: ACP (acetaminophen) overdose rescue and effects on normal liver; assay type: in vivo; details: 370 mg/kg ACP + NAC 7.35 mmol/kg
Protocol: 36-Male Swiss Webster Mice (HSD) were fasted over-night and then brought to the lab at 8:00 am the following day and weighed. Food was kept out of the cages until after the final drug injection. Mice were divided into treatment groups as below in Table 2.
Thirty minutes post overdose with 370 mg/kg ACP, the following were evaluated for the groups in Table 2:
N-acetylcysteine (NAC) at 7.35 mmol/kg;
Ψ-GSH at three different doses, 3.67, 2.45 and 1.22 mmol/kg; and
examine effects of Ψ-GSH on normal liver at rescue doses.

`N[C@@H](CCC(=O)N[C@@H](CSCc1ccc(Br)cc1)C(=O)NCC(=O)O)C(=O)O` [GSBB, S-p-bromobenzylglutathione, reference compound] was tested, and the cell death (SH-SY-5Y cells; 1 mM compound alone, SH-SY-5Y) was 10% and the viability at 1000 µM (SH-SY-5Y cells; Homo sapiens, SH-SY5Y, Aβ in combination with 1 mM GSBB, read-out: Percentage cell viability) was 23.6%.

With [γ-Gla-Cys-Gly-OH]2 [Compound XI] the “% Inhibition of Cell Growth with Aβ1-42” value (SH-SY-5Y cells; SH-SY-5Y) was 24% and the “% Inhibition of Cell Growth without Aβ1-42” value (SH-SY-5Y cells; SH-SY-5Y) was 1%.

In the case of γ-Glt-Cys-Gly-OH [III], the “% Inhibition of Cell Growth with Aβ1-42” value (SH-SY-5Y cells; SH-SY-5Y) is reported as 55% and the “% Inhibition of Cell Growth without Aβ1-42” value (SH-SY-5Y cells; SH-SY-5Y) is reported as 2%.

For “HCl•γ-Gla[-Cys-Gly-OtBu]-OtBu [Compound VIII]”, the “% Inhibition of Cell Growth with Aβ1-42” value (SH-SY-5Y cells; SH-SY-5Y) was 50% and the “% Inhibition of Cell Growth without Aβ1-42” value (SH-SY-5Y cells; SH-SY-5Y) was 1%.

In the case of “HCl•γ-Gla[Cys-Gly-OiPr]-OiPr [Compound IX]”, the “% Inhibition of Cell Growth with Aβ1-42” value (SH-SY-5Y cells; SH-SY-5Y) is reported as 31% and the “% Inhibition of Cell Growth without Aβ1-42” value (SH-SY-5Y cells; SH-SY-5Y) is reported as 0%.

For Boc-γ-Gla-Cys-Gly-OH [Compound V], the “% Inhibition of Cell Growth with Aβ1-42” value (SH-SY-5Y cells; SH-SY-5Y) was 10% and the “% Inhibition of Cell Growth without Aβ1-42” value (SH-SY-5Y cells; SH-SY-5Y) was 1%.

With “HCl•γ-Gla[Cys-Gly-OCyP]-OcyP [Compound X]” the “% Inhibition of Cell Growth with Aβ1-42” value (SH-SY-5Y cells; SH-SY-5Y) was 27% and the “% Inhibition of Cell Growth without Aβ1-42” value (SH-SY-5Y cells; SH-SY-5Y) was 0%.

In the case of `N[C@@H](CC(=O)N[C@@H](CS)C(=O)NCC(=O)O)C(=O)O` [asparthione], the “slope for initial velocity vs. substrate concentration” value (yeast glyoxalase I) is reported as 0.0132±0.0136.

N-acetyl-γ-Gla-Cys-Gly-OH [IV] was tested, and the “% Inhibition of Cell Growth with Aβ1-42” value (SH-SY-5Y cells; SH-SY-5Y) was 3% and the “% Inhibition of Cell Growth without Aβ1-42” value (SH-SY-5Y cells; SH-SY-5Y) was 0%.

For γ-Glo-Cys-Gly-OH [II], the “% Inhibition of Cell Growth with Aβ1-42” value (SH-SY-5Y cells; SH-SY-5Y) was 56% and the “% Inhibition of Cell Growth without Aβ1-42” value (SH-SY-5Y cells; SH-SY-5Y) was 1%.

In the case of “Boc-γ-Gla(OtBu)-Cys-Gly-OtBu [Compound VI]”, the “% Inhibition of Cell Growth with Aβ1-42” value (SH-SY-5Y cells; SH-SY-5Y) is reported as 18% and the “% Inhibition of Cell Growth without Aβ1-42” value (SH-SY-5Y cells; SH-SY-5Y) is reported as 2%.

In the case of “Boc-γ-Gla[-Cys(StBu)-Gly-OtBu]-OtBu [Compound 7]”, the “% Inhibition of Cell Growth with Aβ1-42” value (SH-SY-5Y cells; SH-SY-5Y) is reported as 41% and the “% Inhibition of Cell Growth without Aβ1-42” value (SH-SY-5Y cells; SH-SY-5Y) is reported as 0%.

With `CC(=O)N[C@@H](CS)C(=O)O` [NAC, N-acetylcysteine, reference compound] the “death of animals in the group” value (Swiss Webster Mice) was 50%.
